Earlier results, collected in US8003690B2, “Topical nanoparticulate spironolactone formulation” (Jagotec AG, priority 2002, dated 2011).

CC(=O)S[C@@H]1CC2=CC(=O)CC[C@]2(C)[C@H]2CC[C@@]3(C)[C@@H](CC[C@@]34CCC(=O)O4)[C@H]12 [Spironolactone]
solubility in water: 2.8 mg/100 ml
